From paper PMC6263361 (Molecules, 2011)
Like-named read-outs stand apart in the source and are kept apart here. Values belong to the molecule of their own block, whether it stands above or below them.

Legend:
GST = GST (Schistosoma japonicum, UniProt P08515); experiment: SPR interaction analysis with immobilized GST tag alone; type: binding; settings: etoposide 2.5-100 µM injected
Protocol: (§1) The gene encoding E2F-4 protein was engineered into an E. coli expression system as a GST fusion protein (GST-E2F-4) and purified by affinity interaction using glutathione Sepharose beads. The GST-E2F-4 was immobilized on a CM5 sensor chip using the same procedure as described for the synthetic ETBP.
(§2) Analysis of binding between etopside and synthetic ETBP or recombinant GST-E2F-4 was performed with a surface plasmon resonance (SPR) biosensor (Biacore®3000, GE Healthcare). The synthetic ETBP or protein dissolved in each buffer (ETBP16: 10 mM acetate buffer, pH 4.0−10% DMSO; ETBP10, HG102: 10 mM carbonate buffer, pH 8.5; protein: 10 mM acetate buffer, pH 4.0) was injected over a CM5 sensor chip at 10 µL/min and captured on the carboxymethyl dextran matrix via an amine coupling reaction. The surface was activated by injecting a solution containing 200 mM EDC and 50 mM NHS for 14 min. The protein or peptide was injected and the surface was then blocked by injecting 1 M ethanolamine at pH 8.5 for 14 min. […] BIAevaluation 3.2 software (GE Healthcare) was used to determine the kinetic parameters.

E2F-4/DP2 = target: T1, E2F-4/DP2 (Homo sapiens, UniProt Q16254); experiment: Luciferase reporter gene assay, E2F-4/DP2 expressing CHO-K1 cells; type: cell-based; settings: 15 h incubation, read-out: IC50 of reporter gene transcription, E2F-4/DP2
T1 construct: expressed in transfected cells; host or cells: CHO-K1
T1 sequence (Q16254 whole entry, species assumed): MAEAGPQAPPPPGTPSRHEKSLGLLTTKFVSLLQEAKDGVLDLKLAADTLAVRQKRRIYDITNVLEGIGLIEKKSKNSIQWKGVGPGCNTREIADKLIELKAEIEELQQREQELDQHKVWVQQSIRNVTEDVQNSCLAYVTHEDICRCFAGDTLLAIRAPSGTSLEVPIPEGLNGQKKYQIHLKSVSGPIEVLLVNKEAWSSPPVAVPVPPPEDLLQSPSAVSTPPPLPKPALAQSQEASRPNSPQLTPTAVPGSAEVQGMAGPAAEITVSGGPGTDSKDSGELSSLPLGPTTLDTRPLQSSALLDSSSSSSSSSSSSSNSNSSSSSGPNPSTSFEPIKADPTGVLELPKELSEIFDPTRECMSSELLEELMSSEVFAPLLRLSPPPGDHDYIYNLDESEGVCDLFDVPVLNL
Source text: (§3) E2F-4 functions as a transcription factor, forming a heterodimeric complex with DP via the DP binding domain (G86-I181) (Figure 9).
(§4) The vectors (pCMV-E2F-4, pCMV-DP1, pCMV-DP2) for the luciferase reporter gene assay were kindly provided by Dr. Junji Magae (Institute of Research and Innovation (IRI), Kashiwa, Chiba, Japan) The reporter gene plasmid (pGL3-GC box) was constructed by insertion of double stranded DNA with XhoI and HindIII site, which was generated by an annealing of 60 pmol of oligonucleotides 5’-[…]-3’ and 5’-[…]-3’ into pGL3 vector (Promega). Transfection was then performed using Lipofectamine 2000 (Invitrogen) in a 96-well format according to the manufacturer’s instructions (Invitrogen).

CHO-K1 cells = experiment: MTS assay of cell proliferation; type: cell-based; settings: concentrations used in the reporter assay; data not shown
[1] = test system: control peptide HG102 (SGVMLGDPN); experiment: SPR interaction analysis between etoposide and control peptide HG102; type: binding; settings: etoposide 3.2-80 µM injected
Protocol: Synthetic ETBP16 or ETBP10 was immobilized on a CM5 censor chip by an amine coupling reaction. […] By contrast, no response was observed against a control peptide HG102 ([…]).
Analysis of binding between etopside and synthetic ETBP or recombinant GST-E2F-4 was performed with a surface plasmon resonance (SPR) biosensor (Biacore®3000, GE Healthcare). The synthetic ETBP or protein dissolved in each buffer (ETBP16: 10 mM acetate buffer, pH 4.0−10% DMSO; ETBP10, HG102: 10 mM carbonate buffer, pH 8.5; protein: 10 mM acetate buffer, pH 4.0) was injected over a CM5 sensor chip at 10 µL/min and captured on the carboxymethyl dextran matrix via an amine coupling reaction. The surface was activated by injecting a solution containing 200 mM EDC and 50 mM NHS for 14 min. The protein or peptide was injected and the surface was then blocked by injecting 1 M ethanolamine at pH 8.5 for 14 min. This reaction immobilized 1279 resonance units (RU) of ETBP16, 3400 RU of ETBP10, 350 RU of HG102, 11421 RU of GST-E2F-4, 4388 RU of GST, and 7500 RU of top II (usb). […] BIAevaluation 3.2 software (GE Healthcare) was used to determine the kinetic parameters.

GST-E2F-4 = target: T2, GST-E2F-4 (Homo sapiens, UniProt Q16254); experiment: SPR interaction analysis with immobilized recombinant GST-E2F-4; type: binding; settings: for affinity for E2F-4, fold weaker than that of etoposide: relative to etoposide
T2 construct: The 1239-bp cDNA fragment of E2F-4 was amplified from I.M.A.G.E cDNA clone; made in house; host or cells: E. coli BL21(DE3)pLysS
T2 sequence (Q16254 whole entry, the tested form may be a part): as the sequence (Q16254 whole entry, species assumed) above
Source text: as §1
The 1239-bp cDNA fragment of E2F-4 was amplified from I.M.A.G.E cDNA clone (clone ID CL0B005ZB12, Invitrogen) by PCR with the primers 5’-[…]-3’ (up) and 5’-[…]-3’ (down) and subcloned into pGEM-T vector (Promega). Following purification and digestion with EcoRI and XhoI, the cDNA fragment was subcloned into the expression vector pET28a(+) (Novagen). The construct was transformed into E. coli BL21(DE3)pLysS (Novagen). Heterologous gene expression was induced by addition of 0.1 mM isopropyl β-D-1-thiogaractopyranoside (IPTG). The culture was continued at 37 °C with vigorous shaking for 1 h. The cells were then harvested and suspended in binding buffer (0.5 M NaCl, 5 mM 2-mercaptoethanol in 50 mM sodium phosphate, pH 7.5). Following sonication and centrifugation the soluble fraction was obtained and purified using the FPLC instrument and GSTrap column (1 mL, GE Healthcare) and then subjected to kinetic analysis by SPR. The purified GST-E2F-4 in resulting fraction was detected by a SDS-PAGE followed by CBB staining or Western blotting using rabbit anti-GST (primary) and anti-rabbit IgG-AP conjugate (secondary) antibodies (Sigma-Aldrich) with BCIP/NBT solution.
as §2

E2F-4/DP1 = target: T3, E2F-4/DP1 (Homo sapiens, UniProt Q16254); experiment: Luciferase reporter gene assay, E2F-4/DP1 expressing CHO-K1 cells; type: cell-based; settings: 15 h incubation, read-out: IC50 of reporter gene transcription, E2F-4/DP1
T3 construct: expressed in transfected cells; host or cells: CHO-K1
T3 sequence (Q16254 whole entry, species assumed): as above
Source text: as §3, §4

[2] = SPR, read-out: KD between GST-E2F-4 and each compound

Sequence of GST (P08515 whole entry, the tested form may be a part): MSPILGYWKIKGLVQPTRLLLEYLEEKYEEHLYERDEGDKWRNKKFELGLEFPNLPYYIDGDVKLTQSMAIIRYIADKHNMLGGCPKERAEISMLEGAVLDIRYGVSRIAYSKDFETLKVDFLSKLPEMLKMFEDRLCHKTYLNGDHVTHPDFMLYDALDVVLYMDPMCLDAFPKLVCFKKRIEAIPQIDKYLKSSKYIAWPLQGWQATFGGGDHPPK

- SPR response against GST tag alone (GST): did not show any response
- IC50 (E2F-4/DP2): 1160 nM
- Kd (GST-E2F-4; [2]): 75 µM
- IC50 (E2F-4/DP1): 1560 nM
SMILES: COc1cc([C@@H]2c3cc4c(cc3[C@@H](O[C@@H]3O[C@@H]5CO[C@@H](C)O[C@H]5[C@H](O)[C@H]3O)[C@H]3COC(=O)[C@H]23)OCO4)cc(OC)c1O [Etoposide]
- effect in terms of cell growth in MTS assay (CHO-K1 cells): no effect
- SPR response against control peptide HG102 [1]: no response

SMILES: COc1cc([C@@H]2c3cc4c(cc3[C@H](O)[C@H]3COC(=O)[C@H]23)OCO4)cc(OC)c1OC [Podophyllotoxin, podophyllotoxin]
- Kd (GST-E2F-4): 308 µM
- affinity for E2F-4, fold weaker than that of etoposide (GST-E2F-4; SPR): approximately four

- SPR response against GST-E2F-4 (GST-E2F-4; in the concentration range tested): no response
SMILES: COc1cc(C(=O)O)cc(OC)c1O [Syringic acid]

- affinity for E2F-4, fold weaker than that of etoposide (GST-E2F-4; SPR): nine
- Kd (GST-E2F-4; [2]): 654 µM
SMILES: COc1cc([C@@H]2c3cc4c(cc3[C@@H](O[C@@H]3O[C@@H]5CO[C@@H](c6cccs6)O[C@H]5[C@H](O)[C@H]3O)[C@H]3COC(=O)[C@H]23)OCO4)cc(OC)c1O [Teniposide, teniposide]
